In brackets after ≈: the same amount, converted by molar mass. Blank lines part the entries; values can stand above or below the compound they belong to.
Columns and labels:
Assay in all cases: ≥ marks a high value that may be exact or a test limit, other limits are often not marked, values filed in µg/mL are converted to µM
[1] = tested on: Pseudomonas aeruginosa ATCC 27853
[2] = tested on: Staphylococcus aureus ATCC 29213
[3] = tested on: Candida albicans ATCC 10231
Escherichia coli UB1005 = tested on: Escherichia coli UB1005
[4] = tested on: Pseudomonas aeruginosa PAO1
[5] = tested on: Staphylococcus aureus ATCC 25923
[6] = tested on: Pseudomonas aeruginosa ATCC 9027
[7] = tested on: Staphylococcus aureus ATCC 6538
[8] = tested on: Candida albicans ATCC 2002
[9] = tested on: Enterococcus faecalis ATCC 29212
[10] = tested on: Escherichia coli ATCC 25922
[11] = tested on: Klebsiella pneumoniae ATCC 700603

SMILES: CC(C)C[C@H](NC(=O)[C@H](C)NC(=O)[C@H](CCCCN)NC(=O)[C@H](CCCCN)NC(=O)[C@H](CC(C)C)NC(=O)[C@H](C)NC(=O)[C@H](CCCCN)NC(=O)[C@H](Cc1ccccc1)NC(=O)[C@H](CC(C)C)NC(=O)[C@H](CC(C)C)NC(=O)[C@H](CCCCN)NC(=O)[C@H](C)NC(=O)[C@@H](N)Cc1ccccc1)C(N)=O [FAKLLFKALKKAL]
MIC [6]: 134 µM (≈ 200 µg/mL)
MIC [7]: 33.5 µM (≈ 50 µg/mL)

SMILES: CC(C)C[C@H](NC(=O)[C@H](CCCCN)NC(=O)[C@H](C)NC(=O)[C@H](CC(C)C)NC(=O)[C@H](CC(C)C)NC(=O)[C@H](CCCCN)NC(=O)[C@H](C)NC(=O)[C@@H](N)Cc1ccccc1)C(=O)N[C@@H](C)C(=O)N[C@@H](CCCCN)C(=O)N[C@@H](C)C(=O)N[C@@H](CCCCN)C(=O)N[C@@H](C)C(N)=O [FAKLLAKLAKAKA]
MIC [6]: 146 µM (≈ 200 µg/mL)
MIC [7]: 72.8 µM (≈ 99.9 µg/mL)

SMILES: CC(C)C[C@H](NC(=O)[C@H](CCCCN)NC(=O)[C@H](CC(C)C)NC(=O)[C@H](CCCCN)NC(=O)[C@H](CC(C)C)NC(=O)[C@H](C)NC(=O)[C@H](CCCCN)NC(=O)[C@H](C)NC(=O)[C@H](CC(C)C)NC(=O)[C@H](CC(C)C)NC(=O)[C@H](CCCCN)NC(=O)[C@H](C)NC(=O)[C@@H](N)Cc1ccccc1)C(N)=O [FAKLLAKALKLKL]
MIC [6]: 17.2 µM (≈ 25 µg/mL)
MIC [7]: 6.86 µM (≈ 9.99 µg/mL)

SMILES: CC(C)C[C@H](NC(=O)[C@H](C)NC(=O)[C@H](CCCCN)NC(=O)[C@H](C)NC(=O)[C@H](CC(C)C)NC(=O)[C@H](CCCCN)NC(=O)[C@H](CCCCN)NC(=O)[C@H](C)NC(=O)[C@H](CC(C)C)NC(=O)[C@H](CCCCN)NC(=O)[C@H](C)NC(=O)[C@H](CC(C)C)NC(=O)[C@H](CCCCN)NC(=O)[C@H](CCCCN)NC(=O)[C@H](C)NC(=O)[C@@H](N)Cc1ccccc1)C(N)=O [FAKKLAKLAKKLAKAL]
MIC [6]: 115 µM (≈ 200 µg/mL)
MIC [7]: > 115 µM

SMILES: CSCC[C@H](NC(=O)[C@H](CCCN=C(N)N)NC(=O)[C@H](Cc1c[nH]c2ccccc12)NC(=O)[C@H](CCC(N)=O)NC(=O)[C@H](Cc1c[nH]c2ccccc12)NC(=O)[C@H](CCCN=C(N)N)NC(=O)[C@H](CCCN=C(N)N)NC(=O)[C@H](C)NC(=O)[C@H](CCCCN)NC(=O)[C@@H](N)Cc1ccccc1)C(=O)N[C@@H](CCCCN)C(=O)N[C@@H](CCCCN)C(=O)O [FKARRWQWRMKK]
MIC [9]: 58.2 µM (≈ 100 µg/mL)
MIC [10]: 116 µM (≈ 200 µg/mL)

SMILES: CC(C)C[C@H](NC(=O)[C@H](C)NC(=O)[C@H](CC(C)C)NC(=O)[C@H](CCCCN)NC(=O)[C@H](C)NC(=O)[C@H](CC(C)C)NC(=O)[C@H](CCCCN)NC(=O)[C@H](CCCCN)NC(=O)[C@H](C)NC(=O)[C@H](CC(C)C)NC(=O)[C@H](CCCCN)NC(=O)[C@H](CCCCN)NC(=O)[C@H](C)NC(=O)[C@@H](N)Cc1ccccc1)C(N)=O [FAKKLAKKLAKLAL]
MIC [6]: 64.8 µM (≈ 99.9 µg/mL)
MIC [7]: 3.24 µM (≈ 5 µg/mL)

Second part, the compound after the results:

MIC [1]: 6.31 µM (≈ 14.1 µg/mL)
MIC [2]: 18.1 µM (≈ 40.6 µg/mL)
MIC [3]: 27.9 µM (≈ 62.4 µg/mL)
SMILES: CC(C)C[C@H](NC(=O)[C@H](CCCCN)NC(=O)[C@H](CCCCN)NC(=O)[C@H](CC(C)C)NC(=O)[C@H](CC(C)C)NC(=O)[C@H](CCCCN)NC(=O)[C@H](CCCCN)NC(=O)[C@H](CC(C)C)NC(=O)[C@H](CCCCN)NC(=O)[C@H](CCCCN)NC(=O)[C@H](CC(C)C)NC(=O)[C@H](CC(C)C)NC(=O)[C@H](CCCCN)NC(=O)[C@H](CCCCN)NC(=O)[C@H](CC(C)C)NC(=O)[C@H](CC(C)C)NC(=O)[C@H](CCCCN)NC(=O)[C@@H](N)Cc1ccc(O)cc1)C(N)=O [YKLLKKLLKKLKKLLKKL]

MIC (Escherichia coli UB1005): 0.516 µM (≈ 1.3 µg/mL)
MIC [4]: 2.24 µM (≈ 5.65 µg/mL)
MIC [5]: 0.198 µM (≈ 0.5 µg/mL)
SMILES: CC[C@H](C)[C@H](NC(=O)[C@H](CCCN=C(N)N)NC(=O)[C@H](CCCN=C(N)N)NC(=O)[C@@H]1CCCN1C(=O)[C@H](Cc1c[nH]c2ccccc12)NC(=O)[C@H](CCCN=C(N)N)NC(=O)[C@@H]1CCCN1C(=O)[C@H](CCCN=C(N)N)NC(=O)[C@@H]1CCCN1C(=O)[C@H](CC(C)C)NC(=O)[C@H](Cc1ccc(O)cc1)NC(=O)[C@@H]1CCCN1C(=O)[C@@H]1CCCN1C(=O)[C@H](CCCCN)NC(=O)[C@H](CCCN=C(N)N)NC(=O)[C@@H](N)C(C)C)C(=O)N[C@@H](Cc1ccc(O)cc1)C(=O)N[C@@H](CC(N)=O)C(=O)N[C@@H](CCCN=C(N)N)C(N)=O [VRKPPYLPRPRWPRRIYNR]

MIC [1]: 3.96 µM (≈ 8.48 µg/mL)
MIC [2]: 1.14 µM (≈ 2.45 µg/mL)
MIC [3]: 69.6 µM (≈ 149 µg/mL)
SMILES: CC(C)C[C@H](NC(=O)[C@H](CCCCN)NC(=O)[C@H](Cc1ccccc1)NC(=O)[C@H](CC(C)C)NC(=O)[C@H](CC(C)C)NC(=O)CNC(=O)[C@H](CCCCN)NC(=O)[C@H](CC(C)C)NC(=O)[C@H](CCCCN)NC(=O)[C@@H]1CCCN1C(=O)[C@H](CC(C)C)NC(=O)[C@H](CC(C)C)NC(=O)[C@H](CC(C)C)NC(=O)[C@H](CCCCN)NC(=O)[C@H](CC(C)C)NC(=O)[C@H](CC(C)C)NC(=O)[C@H](CCCCN)NC(=O)[C@@H](N)Cc1ccc(O)cc1)C(N)=O [YKLLKLLLPKLKGLLFKL]

MIC (Escherichia coli UB1005): 2.11 µM (≈ 5 µg/mL)
MIC [4]: 19.1 µM (≈ 45.2 µg/mL)
MIC [5]: 3.37 µM (≈ 8 µg/mL)
SMILES: CC[C@H](C)[C@H](NC(=O)[C@H](CCCN=C(N)N)NC(=O)[C@H](CCCN=C(N)N)NC(=O)[C@@H]1CCCN1C(=O)[C@@H]1CCCN1C(=O)[C@H](CCCN=C(N)N)NC(=O)[C@@H]1CCCN1C(=O)[C@H](CCCN=C(N)N)NC(=O)[C@@H]1CCCN1C(=O)[C@H](CC(C)C)NC(=O)[C@H](Cc1ccc(O)cc1)NC(=O)[C@@H]1CCCN1C(=O)[C@@H]1CCCN1C(=O)[C@H](CCCCN)NC(=O)[C@@H]1CCCN1C(=O)[C@@H](N)C(C)C)C(=O)N[C@@H](Cc1ccc(O)cc1)C(=O)N[C@@H](CC(N)=O)C(=O)N[C@@H](CCCN=C(N)N)C(N)=O [VPKPPYLPRPRPPRRIYNR]

MIC [5]: 43.7 µM (≈ 100 µg/mL)
MIC [8]: 16.4 µM (≈ 37.5 µg/mL)
SMILES: CC[C@H](C)[C@H](NC(=O)[C@H](C)NC(=O)[C@H](CCCN=C(N)N)NC(=O)[C@H](Cc1ccc(O)cc1)NC(=O)[C@H](CC(C)C)NC(=O)[C@H](CC(N)=O)NC(=O)[C@H](Cc1ccc(O)cc1)NC(=O)CNC(=O)[C@H](C)NC(=O)[C@@H](NC(=O)[C@@H](NC(=O)[C@@H](NC(=O)[C@H](CCCN=C(N)N)NC(=O)[C@@H](NC(=O)[C@@H](NC(=O)[C@@H](NC(=O)[C@@H]1CCCN1)C(C)C)C(C)C)[C@@H](C)CC)[C@@H](C)O)C(C)C)C(C)C)C(=O)N[C@@H](CCCCN)C(=O)N[C@@H](CCCCN)C(=O)N[C@@H](CCCCN)C(=O)O [PVVIRTVVAGYNLYRAIKKK]

MIC [11]: 13.1 µM (≈ 32 µg/mL)
MIC [10]: 13.1 µM (≈ 32 µg/mL)
SMILES: CC[C@H](C)[C@H](NC(=O)[C@@H](NC(=O)[C@@H]1CCCN1C(=O)[C@@H](NC(=O)[C@@H]1CCCN1C(=O)[C@H](CCCCN)NC(=O)[C@H](CCCCN)NC(=O)[C@H](CO)NC(=O)CN)C(C)C)[C@@H](C)CC)C(=O)N[C@@H](Cc1ccc(O)cc1)C(=O)N[C@H]1CSSC[C@@H](C(=O)N[C@@H](CCC(N)=O)C(=O)N[C@@H](CCCN=C(N)N)C(=O)N[C@@H](CCSC)C(=O)O)NC(=O)[C@H](CCCCN)NC(=O)CNC(=O)[C@H](CO)NC(=O)[C@H](CCCN=C(N)N)NC(=O)[C@H](CCCN=C(N)N)NC(=O)[C@H](CCC(N)=O)NC1=O [GSKKPVPIIYCQRRSGKCQRM]
